From patent US12419839B2, “Methods and compositions for targeted delivery of protein fragments” (Signablok, Inc., priority 2009, dated 2025)
Where no end group is shown, it is not given here.

What was measured:
A549 xenograft = A549 xenograft mouse model of NSCLC; format: in vivo; conditions: compared to the vehicle-treated group
Excerpt: FIG. 16 presents exemplary data showing that in drug-containing synthetic (recombinant) HDL (SLP, LPC), apolipoprotein can be replaced by synthetic apolipoprotein fragments without compromising the drug antitumor activity in an animal model. Bars, SEM. For statistical analysis, each treatment was compared with the vehicle control using Student's t test. **, P 0.001 to 0.01. Abbreviations: apo, apolipoprotein; HDL, high density lipoproteins; HDL (A-Iox), HDL with oxidized human apo A-I; HDL (PE22ox+PA22ox), HDL with a 1:1 mixture of synthetic peptides PE22ox and PA22ox that correspond to apo A-I helixes 4 and 6, respectively (SEE FIG. 12); dHDL and sHDL, discoidal and spherical HDL, respectively; LPC, lipoprotein/lipopeptide complexes; NSCLC, non-small cell lung cancer; PTX, paclitaxel; SLP, synthetic lipoprotein/lipopeptide particles; TREM-1, triggering receptor expressed on myeloid cells-1.
See, FIGS. 15 and 16. Here, A549 cells were injected subcutaneously into nude mice and randomized into treatment groups (n=10) once tumors reached an average of 200 mm^3. The treatment groups were: i) Vehicle (HDL containing no GF9); ii) paclitaxel (PTX) as a positive control; iii) GF9-dHDL (A-Iox); iv) GF9-sHDL (A-Iox); v) GF9-dHDL(PE22ox+PA22ox); and vi) GF9-sHDL(PE22ox+PA22ox) where each group received intraperitoneal injections twice a week. […]

[1] = tested on: GM-CSF, IFNγ, IL-1β, IL-2, IL-6, IL-17, M-CSF and TNFα; assay: serum cytokines in mice with CIA; format: in vivo; conditions: serum on day 38; MG11 and MG11-2G 25 mg/kg, sHDL-bound MG11 2.5 mg/kg; vs vehicle
mice with CIA = conditions: sHDL-bound MG11 2.5 mg/kg

With `CC(=O)O[C@H]1C(=O)[C@@]2(C)[C@H]([C@H](OC(=O)c3ccccc3)[C@]3(O)C[C@H](OC(=O)[C@H](O)[C@@H](NC(=O)c4ccccc4)c4ccccc4)C(C)=C1C3(C)C)[C@]1(OC(C)=O)CO[C@@H]1C[C@@H]2O` [PTX, paclitaxel] the “post necropsy excised tumors weights” value (A549 xenograft) was “significantly lower”.

In the case of MWGTPTLGYFG [MG11-2G], the serum cytokine release [1] is reported as “no effect” and the “clinical severity of CIA” value (mice with CIA; i.p. daily for 14 days from day 24, MG11 and MG11-2G 25 mg/kg, vs vehicle) is reported as “no effect”.

MWKTPTLKYFG [free MG11, MWKTPTLKYFG] was tested, and the body weight (mice with CIA; i.p. daily for 14 days, MG11 25 mg/kg) was “without affecting body weight”.
